From patent US9051595B2, “Malt1 specific cleavage in assay and screening method” (University of Lausanne, priority 2007, dated 2015)
“Also recorded” adds a separate entry of the source. Peptide text beside a SMILES is read from it. * marks the point of attachment. Cbz = O=C(OCc1ccccc1)*; CH2F = FC*

Columns and labels:
Assay type in all cases: cell-based, human
Bcl10 [1] = assay: Western blot for the faster migrating Bcl10 species (Bcl10 cleavage) in stimulated Jurkat cells pre-treated with inhibitors; conditions: for generation of the faster migrating Bcl10 species: Jurkat cells pre-incubated 30 min with inhibitor, stimulated with CD3/CD28, FIG. 2a; for anti-CD3/CD28-induced reduction in the apparent molecular weight of Bcl10: stimulated with anti-CD3 and anti-CD28, FIG. 5c
Experimental: For short term stimulations, cells were re-suspended at a density of 5×10^7 cells/mi in RPMI with 0.5% serum and pre-warmed for 10 min at 37° C. before addition of the stimulating agent.
T-cell stimulation was initiated by addition of PMA (10 ng/ml, Alexis) and ionomycin (1 μM, Calbiochem) (P/I) or a combination of anti-human CD3ε (10 μg/ml of OKT3, Apotech) and anti-CD28 (10 μg/ml of CD28.2, Immunotech) antibodies (CD3/CD28), immediately followed by addition of 5 μg/ml of cross-linking goat anti-mouse antibody (Southern Biotech).
Stimulations were stopped by addition of ice-cold Tris-NaCl buffer (20 mM Tris-HCl pH 7.4, 150 mM NaCl), and pelleted cells were lysed in Tris-NaCl lysis buffer containing 1% NP40, proteinase inhibitors (Complete, Roche) and phosphatase inhibitors (cocktails I and II, Sigma).
Postnuclear cell lysates were boiled with reducing SDS-sample buffer and analyzed on 16×20 cm gels by 15% SDS-PAGE according to Anderson, N. L. & Anderson, N. G. Analytical techniques for cell fractions. XXII. Two-dimensional analysis of serum and tissue proteins: multiple gradient-slab gel electrophoresis. Anal Biochem 85, 341-54 (1978).
Primary antibodies used are monoclonal mouse anti-phospho ERK (Sigma), rabbit anti-phospho-IκBα (5A5, Cell Signalling), rabbit anti-IκBα (Sigma), and rabbit anti-Bcl10 (H-197, Santa Cruz).
In a first approach, Jurkat cells were pre-incubated with either the pan-PKC inhibitor bisindolyl-maleimide VIII (BIM) or with Gö6976, an inhibitor of classical (Ca2+- and DAG-dependent) PKC isoforms, before stimulation with CD3/CD28 as indicated in Example 1. For pre-incubation, the cells were incubated with […] Gö6976 (Calbiochem) or 500 nM Bisindoleylmaleimide VIII acetate (Alexis), or solvent control for 30 min at 37° in RPMI with 0.5% serum directly prior to stimulation.
Cell lysis and western blots was done as in Example 1. The primary antibody for the experiment with VSV-tagged wt or VSV-tagged Carma1-DN and Carma1-coiled-coil construct is monoclonal mouse anti-VSV (P5D4, Sigma). For Carma1, a rabbit anti-Carma1 (AL220, Alexis) antibody was used.
(§1) For testing if the observed proteolytic activity is an indirect effect of Malt1 on other proteases, Jurkat cells were pretreated with the lysosomal or proteasomal inhibitors (NH4^+/leupeptin or MG132) or solvent control before stimulation with PMA and ionomycin, and postnuclear lysates were analyzed by Western blot as indicated.
(§2) In an analogue experiment, Jurkat cells were pretreated with the pan-caspase inhibitor zVAD-ink or solvent control, and stimulated with anti-CD3 and anti-CD28 antibodies or hexameric recombinant FasL for the indicated times. Postnuclear lysates were analyzed by Western blot with the indicated primary antibodies (FIG. 5c). A non-specific band (n.s.) of the anti-Bcl10 blot served as a loading control.

P-IκB = assay: Western blot for P-IκB in PMA/ionomycin-stimulated Jurkat cells; conditions: Jurkat cells pretreated with inhibitor, PMA and ionomycin; FIG. 5b
Experimental: as §1

caspase-8 = assay: FasL-induced caspase-8 activation in Jurkat cells (Western blot); conditions: Jurkat cells pretreated with inhibitor, hexameric recombinant FasL; FIG. 5c
Experimental: as §2

IL-2 = IL-2 production of Jurkat cells stimulated with Raji cells and superantigen SEE; conditions: FIG. 11e
Experimental: To test the efficiency of inhibitors, Jurkat T cells stimulated or not with PMA and ionomycin for 20 min are mechanically lysed in cleavage assay buffer (see example 4) in the absence or presence of increasing concentrations of a irreversble cell permeable inhibitor peptide (z-VRPR-fink). This inhibitor was designed based on an optimal substrate cleavage sequence reported for the plant metacaspase AtMC9 (see ref. by Vercammen et al. 2006, J. Mol. Biol., 364(4):625-36). Malt1 protease activity is determined as described in example 4. […] Moreover, experiments are performed to assess the effect of the inhibitor on anti-CD3/CD28-induced NF-κB activation in Jurkat T cells, on IL-2 production of Jurkat cells stimulated by incubation with antigen-presenting cells (Raji cells in combination with the superantigen SEE) and on stimulation-induced adhesion to fibronectin (see example 7)).

NF-κB = assay: anti-CD3/CD28-induced NF-κB activation in Jurkat T cells; conditions: FIG. 11d
Bcl10 [2] = assay: Activation-induced cleavage of Bcl10 in living Jurkat T cells and CTLs (Western blot); conditions: Jurkat T cells or CTLs pre-incubated 1 h with inhibitor, PMA and ionomycin; FIGS. 11b, c
Jurkat T cells = assay: Stimulation-induced adhesion of Jurkat T cells to fibronectin; conditions: FIG. 11f
Experimental: Central areas of tissue culture dishes (35-mm×10-mm) were coated for 90 min at 25° C. with 50 μl of fibronectin solution (40 μg/ml; Roche). Coated dishes were washed three times with PBS (without Ca2+ and Mg2+) and were blocked for 2 h with 1% (wt/vol) BSA in PBS. Cells were washed with Hank's balanced-salt solution (Gibco) and were left unstimulated or were stimulated at 37° C. for 30 min with MnCl2 (1 mM) or PMA (100 ng/ml), or for 5 min with anti-human CD3 and anti-CD28 (see example 1). Subsequently, cell suspensions were added to fibronectin-coated tissue culture dishes followed by incubation for additional 30 min at 37° C. Non-adherent cells were removed by washing of the dishes three to five times with Hank's balanced-salt solution. Adherent cells were counted in six separate fields with a microscope with an ocular counting reticule.
To test the efficiency of inhibitors, Jurkat T cells stimulated or not with PMA and ionomycin for 20 min are mechanically lysed in cleavage assay buffer (see example 4) in the absence or presence of increasing concentrations of a irreversble cell permeable inhibitor peptide (z-VRPR-fink). This inhibitor was designed based on an optimal substrate cleavage sequence reported for the plant metacaspase AtMC9 (see ref. by Vercammen et al. 2006, J. Mol. Biol., 364(4):625-36). Malt1 protease activity is determined as described in example 4. […]

Molecule: Cn1cc(C2=C(c3cn(CCCN)c4ccccc34)C(=O)NC2=O)c2ccccc21 [BIM, bisindolyl-maleimide VIII]
- generation of the faster migrating Bcl10 species (Bcl10 [1]): prevented

Molecule: Cn1c2ccccc2c2c3c(c4c5ccccc5n(CCC#N)c4c21)CNC3=O [Gö6976]
- generation of the faster migrating Bcl10 species (Bcl10 [1]): not Gö6976 prevented

Molecule: CC(C)C[C@@H](C=O)NC(=O)[C@H](CC(C)C)NC(=O)[C@H](CC(C)C)NC(=O)OCc1ccccc1 [MG132] (Cbz-Leu-Leu-Leu-aldehyde)
- stabilization of P-I[…]B (P-IκB): efficiently stabilized
- generation of the faster migrating Bcl10 species corresponding to Bcl10 cleavage (Bcl10 [1]; Jurkat cells pretreated with inhibitor, stimulated with PMA and ionomycin, FIG. 5a, 5b): did not affect; also recorded: lack of an effect

Molecule: COC(=O)C[C@H](NC(=O)[C@H](C)NC(=O)[C@@H](NC(=O)OCc1ccccc1)C(C)C)C(=O)CF [zVAD-fmk] (Cbz-Val-Ala-Asp(OMe)-CH2F)
- FasL-induced caspase-8 activation (caspase-8): potently inhibited
- anti-CD3/CD28-induced reduction in the apparent molecular weight of Bcl10 (Bcl10 [1]; Jurkat cells pretreated with inhibitor): no effect
- anti-CD3/CD28-induced reduction in the apparent molecular weight of Bcl10 (Bcl10 [1]; Jurkat cells pretreated with inhibitor, listed as Z-VAD-fmk): lack of an effect

Molecule: z-VRPR-fmk (Cbz-VRPR-CH2F)
- capacity of T cells to produce IL-2 (IL-2): impairs
- capacity of T cells to activate NF-κB (NF-κB): impairs
- activation-induced cleavage of Bcl10 (Bcl10 [2]): reduction
- capacity of T cells to adhere to fibronectin upon T-cell activation (Jurkat T cells): impairs
